Experimental data taken from article PMC11571207, “Stereorandomized Oncocins with Preserved Ribosome Binding and Antibacterial Activity” (Journal of Medicinal Chemistry, 2024).
Like-named read-outs stand apart in the source and are kept apart here. Non-standard residues stand in square brackets, D forms with d. Residues, ends and D or L forms follow the SMILES beside them.

Assays:
E. cloacae = assay: microbe, parasite or virus in culture; details: for MIC E. cloacae: supplement CSV
In short: (§1)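 Minimal inhibitory concentrations come from broth microdilution in MH medium, with a top peptide concentration of 64 μg/mL halved serially.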

K. pneumoniae OXA-48 = assay: microbe, parasite or virus in culture; details: for MIC K. pneumoniae OXA-48: supplement CSV
In short: as §1

[1] = system: P. aeruginosa PA14 2P4 (pmrB); assay: microbe, parasite or virus in culture; details: for MIC P. aeruginosa PA14 2P4: supplement CSV
In short: as §1

P. aeruginosa PA14 = assay: microbe, parasite or virus in culture; details: for MIC P. aeruginosa PA14: supplement CSV
In short: as §1

P. aeruginosa ZEM-1A = assay: microbe, parasite or virus in culture; details: for MIC P. aeruginosa ZEM-1A: supplement CSV
In short: as §1

P. aeruginosa ZEM9A = assay: microbe, parasite or virus in culture; details: for MIC P. aeruginosa ZEM9A: supplement CSV
In short: as §1

E. coli BW25113 WT = details: Table S1, 16-20 h at 37 °C
Procedure: (§2) Minimum inhibitory concentration assay
(§3) Antimicrobial activity was assayed against P. aeruginosa PAO1, K. pneumoniae NCTC418, E. coli W3110, A. baumannii ATCC 19606, methicillin-resistant S. aureus COL (MRSA), and for selected peptides on P. aeruginosa PA14 and the polymyxin-B-resistant derivative PA14 2P4, as well as the clinical isolates ZEM-1A and ZEM9A, K. pneumoniae OXA-48, S. aureus Newman, Enterobacter cloacae and Burkholderia cenocepacia. The minimal inhibitory concentration (MIC) was determined by using broth microdilution method. A colo ny of bacteria was picked and grown in Luria-Bertani (LB) medium overnight at 37°C. For E. coli BW25113 sbmA::kan the medium was supplemented with 25 mg/L of kanamycin. The next day, the culture was then regrown in LB medium to log phase (OD600 = 0.6 to 0.8), which lasted approximately 4 h, and diluted to an OD600 of 0.022 in the desired medium. Stock solutions of 1 mg/mL of the samples were prepared in sterilized milliQ water and diluted to the beginning concentration of 64 μg/mL in 300 μL Mueller Hinton (MH)-medium. The diluted samples were added to first well of 96-well microtiter plate (TPP, untreated, Faust Laborbedarf, AG, Schaffhausen) and diluted serially by ½. Finally, 4 μL of the bacterial suspension was inoculated into the sample solutions (150 μL/well) with a final inoculation of about 5∙10^5 CFU/mL. The plates were then incubated at 37°C for 15-18h. For each assay, sterility (broth only) and growth control (broth with bacterial inoculum, without antibiotics) were checked with two columns in the plate. The next day, 15 μL of 3-(4,5-dimethylthiazol-2-yl)-2,5-diphenyltetrazolium bromide (MTT) was added to each well of the plate, such a way that MIC was defined as the lowest concentration of the peptide that inhibited visible growth of the tested […]
(§4) Table S1. Activity of stereorandomized and diastereomeric oncocins against E. coli BW25113 WT and BW25113 sbmA::kan mutant in full and 12.5% MH, at pH 7.4. […]
(§5) a) Minimum inhibitory concentration (MIC, μg/mL) was determined on E. coli BW25113 WT and […]

[2] = system: E. coli BW25113 sbmA::kan; details: Table S1, sbmA::kan mutant, 16-20 h at 37 °C
Procedure: as §2, §3, §4, §5

[3] = system: P. aeruginosa PA14 4.13 (phoQ); details: for MIC P. aeruginosa PA14 4.13: supplement CSV
[4] = system: P. aeruginosa PA14 4.18 (pmrB); details: for MIC P. aeruginosa PA14 4.18: supplement CSV
human red blood cells = assay: Hemolysis assay, minimum hemolytic concentration
[5] = polymyxin B resistant strain, 12.5% MHB pH 7.4, 16–20 h at 37 °C
[6] = polymyxin B resistant strain, full MHB pH 7.4, 16–20 h at 37 °C
[7] = 12.5% Müller-Hinton medium pH 7.4
[8] = full Müller-Hinton medium pH 7.4

CC[C@H](C)[C@H](NC(=O)[C@H](CCCNC(=N)N)NC(=O)[C@H](CCCNC(=N)N)NC(=O)[C@@H]1CCCN1C(=O)[C@@H]1CCCN1C(=O)[C@H](CCCNC(=N)N)NC(=O)[C@@H]1CCCN1C(=O)[C@H](CCCNC(=N)N)NC(=O)[C@@H]1CCCN1C(=O)[C@@H](CC(C)C)NC(=O)[C@H](Cc1ccc(O)cc1)NC(=O)[C@@H]1CCCN1C(=O)[C@@H]1CCCN1C(=O)[C@H](CCCCN)NC(=O)[C@H](CC(=O)O)NC(=O)[C@@H](N)C(C)C)C(=O)N[C@@H](Cc1ccc(O)cc1)C(=O)N[C@@H](CC(N)=O)C(=O)N[C@@H](CCCNC(=N)N)C(N)=O [DL7-Onc] (H-VDKPPY[dL]PRPRPPRRIYNR-NH2)
>32 µg/mL: MIC P. aeruginosa PA14 (P. aeruginosa PA14; 12.5% MH pH 7.4) | MIC P. aeruginosa PA14 (P. aeruginosa PA14; full MH pH 7.4) | MIC P. aeruginosa PA14 4.13 ([3]; 12.5% MH pH 7.4) | MIC P. aeruginosa PA14 4.13 ([3]; full MH pH 7.4) | MIC P. aeruginosa PA14 4.18 ([4]; 12.5% MH pH 7.4) | MIC P. aeruginosa PA14 4.18 ([4]; full MH pH 7.4)
> 64 µg/mL: MIC E. cloacae, full MHB (E. cloacae; full MHB pH 7.4, 16–20 h at 37 °C) | MIC P. aeruginosa PA14 2P4 (pmrB), full MHB [1, 6] | MIC E. coli BW25113 WT, Full MH (E. coli BW25113 WT; [8]) | MIC E. coli BW25113 SbmA-, Full MH [2, 8]
>1000 µg/mL: Haemolysis on hRBC, MHC (human red blood cells; 2.5% human red blood cells (final) in 10 mM phosphate, 150 mM NaCl, pH 7.4, 25 °C, 4 h, visual inspection) | MHC human red blood cells (human red blood cells; supplement CSV)
>64/>64 μg/mL: MIC K. pneumoniae OXA-48, 12.5% MHB (K. pneumoniae OXA-48; carbapenem-resistant, 12.5% MHB pH 7.4, 16–20 h at 37 °C) | MIC K. pneumoniae OXA-48, full MHB (K. pneumoniae OXA-48; carbapenem-resistant, full MHB pH 7.4, 16–20 h at 37 °C) | MIC P. aeruginosa ZEM9A, 12.5% MHB (P. aeruginosa ZEM9A; clinical isolate, 12.5% MHB pH 7.4, 16–20 h at 37 °C) | MIC P. aeruginosa ZEM9A, full MHB (P. aeruginosa ZEM9A; clinical isolate, full MHB pH 7.4, 16–20 h at 37 °C)
>64 µg/mL: MIC E. cloacae (E. cloacae; full MH pH 7.4) | MIC K. pneumoniae OXA-48 (K. pneumoniae OXA-48; 12.5% MH pH 7.4) | MIC K. pneumoniae OXA-48 (K. pneumoniae OXA-48; full MH pH 7.4) | MIC P. aeruginosa PA14 2P4 ([1]; full MH pH 7.4) | MIC P. aeruginosa ZEM-1A (P. aeruginosa ZEM-1A; 12.5% MH pH 7.4) | MIC P. aeruginosa ZEM-1A (P. aeruginosa ZEM-1A; full MH pH 7.4) | MIC P. aeruginosa ZEM9A (P. aeruginosa ZEM9A; 12.5% MH pH 7.4) | MIC P. aeruginosa ZEM9A (P. aeruginosa ZEM9A; full MH pH 7.4)
32 µg/mL: MIC E. cloacae, 12.5% MHB (E. cloacae; 12.5% MHB pH 7.4, 16–20 h at 37 °C) | MIC E. cloacae (E. cloacae; 12.5% MH pH 7.4) | MIC P. aeruginosa PA14 2P4 (pmrB), 12.5% MHB [1, 5] | MIC P. aeruginosa PA14 2P4 ([1]; 12.5% MH pH 7.4) | MIC E. coli BW25113 WT, 12.5% MH (E. coli BW25113 WT; [7]) | MIC E. coli BW25113 SbmA-, 12.5% MH [2, 7]
>64/>64 ^c μg/mL: MIC P. aeruginosa ZEM-1A, 12.5% MHB (P. aeruginosa ZEM-1A; clinical isolate, 12.5% MHB pH 7.4, 16–20 h at 37 °C, cells marked c: single measurement (in duplicates)) | MIC P. aeruginosa ZEM-1A, full MHB (P. aeruginosa ZEM-1A; clinical isolate, full MHB pH 7.4, 16–20 h at 37 °C, cells marked c: single measurement (in duplicates))
>32/>32 μg/mL: MIC P. aeruginosa PA14, 12.5% MHB (P. aeruginosa PA14; 12.5% MHB pH 7.4, 16–20 h at 37 °C, two different duplicate MIC determinations) | MIC P. aeruginosa PA14, full MHB (P. aeruginosa PA14; full MHB pH 7.4, 16–20 h at 37 °C, two different duplicate MIC determinations) | MIC P. aeruginosa PA14 4.13 (phoQ), 12.5% MHB [3, 5] | MIC P. aeruginosa PA14 4.13 (phoQ), full MHB [3, 6] | MIC P. aeruginosa PA14 4.18 (pmrB), 12.5% MHB [4, 5] | MIC P. aeruginosa PA14 4.18 (pmrB), full MHB [4, 6]
